{"source": "paper PMC5512161", "about": "(Neuropharmacology, 2017)", "experiment_in_all_cases": "whole-cell patch clamp", "assay_type_in_all_cases": "cell-based", "key": {"α3β2γ2 GABAA receptor": {"system": "α3β2γ2 GABAA receptor", "conditions": "inhibition of current by EC30 GABA; -60 mV, pH 7.3, 22-25 °C; called competitive"}, "α1β2 GABAA receptor [1]": {"system": "α1β2 GABAA receptor", "conditions": "EC30 GABA, TM2 6' position, -60 mV, pH 7.3"}, "α1β2 GABAA receptor [2]": {"system": "α1β2 GABAA receptor", "conditions": "EC30 GABA (0.5 μM), -60 mV, pH 7.3"}, "α6β2γ2 GABAA receptor": {"system": "α6β2γ2 GABAA receptor", "conditions": "EC30 GABA (1 μM), -60 mV, pH 7.3, biphasic effect"}}}
{"smiles": "O=C1Nc2ccc(Cl)cc2[C@@](C#CC2CC2)(C(F)(F)F)O1", "note": "[Efavirenz]", "values": [{"measurement": "IC50", "setting": "α3β2γ2 GABAA receptor", "result": "14 ± 6.3", "unit": "µM"}, {"measurement": "% of control end-application current at 30 μM", "setting": "α1β2 GABAA receptor [1]", "result": "95 ± 18", "unit": "%"}, {"measurement": "% of control end-application current at 30 μM", "setting": "α1β2 GABAA receptor [2]", "result": "1.6 ± 1.7", "unit": "%"}, {"measurement": "% of control end-application current at 30 μM", "setting": "α6β2γ2 GABAA receptor", "result": "46 ± 6.1", "unit": "%"}]}
